One sequence from paper PMC10762068, “Selective blockade of Cav1.2 (α1C) versus Cav1.3 (α1D) L-type calcium channels by the black mamba toxin calciseptine” (Nature Communications, 2024) can be followed below.

“Also recorded” adds a separate entry of the source. Like-named read-outs stand apart in the source and are kept apart here. Positions of bridges follow the written chain, without caps; N, C: chain ends. No end group written: not given here.

Common to all, as to assay type: cell-based
One data set concerns the target T1, Cav1.2 (Homo sapiens, UniProt Q13936).
T1 construct: expressed in transfected cells; host or cells: HEK-293T
Put plainly: cell-based. The conditions noted are these: for L-type Ca2+ current density: mean ± SEM, n=11. On the procedure:
(§1) HEK-293T (RRID:CVCL_2737) were obtained from the European Collection of Authenticated Cell Cultures (ECACC 96121229). The identity of HEK-293T has been confirmed by STR profiling and the cells have been eradicated from mycoplasma at ECACC. We routinely tested the cells for the absence of the mycoplasma contamination. Cells were cultivated at 37 °C in DMEM supplemented with GlutaMax, 10% fetal bovine serum and 1% penicillin/streptomycin (Invitrogen, Fisher Scientific, France). Transfections were performed using jet-PEI (Ozyme, France) with a DNA mix containing either the plasmids that code for Cav1.2-GFP, β2a and α2δ (0.8 µg of each) or either the plasmids that code for Cav1.3 (with and without exon 42a), or Cav2.1, or either Cav2.2 combined with β2a and α2δ (0.8 µg of each supplemented with 0.025 µg of a plasmid coding for GFP). For Cav3.1 expression β2a and α2δ subunits were omitted. Plasmids coding for β2a, α2δ and Cav1.3 were created as described previously. Plasmid coding for Cav1.2-GFP was obtained from Dr. Catalucci[60]. After transfection cells were placed at 30 °C for 2–3 days and dissociated with Versene (Invitrogen, Fisher Scientific, France) and plated at a density of ~35 × 10^3 cells per 35 mm Petri dish for electrophysiological recordings, which were performed the following day.
(§2) Macroscopic currents in HEK-293T cells were recorded at room temperature using an Axopatch 200B or Multiclamp 700B patchclamp amplifier (Molecular Devices, Sunnyvale CA). […] The extracellular solution contained (in mM): 135 NaCl, 20 TEACl, 5 BaCl2, 1 MgCl2, and 10 HEPES (pH adjusted to 7.25 with KOH, ~330 mOsm).
In all experiments of cellular electrophysiology, we employed synthetized analog of Cas, commercially available at Latoxan (ID: L8109). The native peptide was purified from the venom of Dendroaspis polylepis purchased from Latoxan, as previoulsly described. The pure peptide was obtained after gel filtration, cation exchange and C18 reversed phase chromatography.

In a further data set the test system is Cav1.3_42a. Put plainly: Whole cell recording of ICav1.3-42a in HEK-293T cells. As to conditions: for L-type Ca2+ current density: mean ± SEM, n=9. How it is done:
as §1, §2
In all experiments of cellular electrophysiology, we employed synthetized analog of Cas, commercially available at Latoxan (ID: L8109). The native peptide was purified from the venom of Dendroaspis polylepis purchased from Latoxan, as previoulsly described. The pure peptide was obtained after gel filtration, cation exchange and C18 reversed phase chromatography. Its measured molecular mass (7036.26 Da average) was in accordance with the mass calculated from sequence data (7036.22 Da).

Another data set concerns Cav2.2 N-type. In words: Ca2+ current in HEK-293T cells expressing Cav2.2. As to conditions: Cas 300 nM (n=11/N=3) and 1 µM (n=9/N=3); holding -90 mV, step +20 mV. On the procedure:
HEK-293T (RRID:CVCL_2737) were obtained from the European Collection of Authenticated Cell Cultures (ECACC 96121229). The identity of HEK-293T has been confirmed by STR profiling and the cells have been eradicated from mycoplasma at ECACC. We routinely tested the cells for the absence of the mycoplasma contamination. Cells were cultivated at 37 °C in DMEM supplemented with GlutaMax, 10% fetal bovine serum and 1% penicillin/streptomycin (Invitrogen, Fisher Scientific, France). […]
Macroscopic currents in HEK-293T cells were recorded at room temperature using an Axopatch 200B or Multiclamp 700B patchclamp amplifier (Molecular Devices, Sunnyvale CA). […]
In all experiments of cellular electrophysiology, we employed synthetized analog of Cas, commercially available at Latoxan (ID: L8109). […] Its measured molecular mass (7036.26 Da average) was in accordance with the mass calculated from sequence data (7036.22 Da). […]
n=10/N=3) channels. Peak current density wa s recorded starting f rom a holding potential of -80mV using an activating voltage step at -30mV for Cav3.1, f ro m a holding potential of -90mV using an activating voltage step at +20mV for Cav2.2 and f rom a holding potential of -80mV using an activating voltage step at 0mV for Cav2.1. Exam ples of recorded traces are reported. […]

The test system of data set [1] is human ether-a-go-go-related gene (hERG). Put plainly: hERG current in Xenopus oocytes. The conditions noted are these: Cas 1 µM, n=5, Xenopus oocytes, 19-20 °C. How it is done:
Xenopus laevis specimen were purchased from Tefor Paris Saclay. Animal handling and experiments fully conformed to French regulations and were approved by local governmental veterinary services (authorization number E06-152-5 delivered by the Ministère de l’Agriculture, Direction des Services Vétérinaires). Animals were anesthetized by exposure for 20 min to a 0.1% solution of 3-aminobenzoic acid ethyl ester (MS-222) (Sigma) buffered at pH 7.4. Oocytes were surgically removed and dissected away in a saline solution (ND96) containing (in mM) 96 NaCl, 2 KCl, 1.8 CaCl2, 2 MgCl2, and 5 HEPES at pH 7.4 with NaOH. Stage V and VI oocytes were treated for 3 h with collagenase (1 mg/ml, type Ia, Sigma) in the presence of trypsin inhibitor (Sigma) in ND96 to discard follicular cells. pSI-HERG plasmid solutions were injected in nucleus (100 ng/µl, 23 nl/oocyte) using a pressure microinjector. The oocytes were kept at 19 °C in the ND96 saline solution supplemented with penicillin (10 mg/L) and streptomycin (20 mg/L). Oocytes were studied within 2 days following injection of plasmid. In a 0.3-ml perfusion chamber, a single oocyte was impaled with two standard glass microelectrodes (1–2.5 MΩ resistance) filled with 3 M KCl and maintained under voltage- clamp using a Dagan TEV 200 amplifier. […]
(In general: hERG is a cardiac potassium channel; its block is linked to QT prolongation.)

The mark [2] stands for this setting: HEK-293T, read-out: inhibition of ICav1.2.

T1 sequence (Q13936 whole entry): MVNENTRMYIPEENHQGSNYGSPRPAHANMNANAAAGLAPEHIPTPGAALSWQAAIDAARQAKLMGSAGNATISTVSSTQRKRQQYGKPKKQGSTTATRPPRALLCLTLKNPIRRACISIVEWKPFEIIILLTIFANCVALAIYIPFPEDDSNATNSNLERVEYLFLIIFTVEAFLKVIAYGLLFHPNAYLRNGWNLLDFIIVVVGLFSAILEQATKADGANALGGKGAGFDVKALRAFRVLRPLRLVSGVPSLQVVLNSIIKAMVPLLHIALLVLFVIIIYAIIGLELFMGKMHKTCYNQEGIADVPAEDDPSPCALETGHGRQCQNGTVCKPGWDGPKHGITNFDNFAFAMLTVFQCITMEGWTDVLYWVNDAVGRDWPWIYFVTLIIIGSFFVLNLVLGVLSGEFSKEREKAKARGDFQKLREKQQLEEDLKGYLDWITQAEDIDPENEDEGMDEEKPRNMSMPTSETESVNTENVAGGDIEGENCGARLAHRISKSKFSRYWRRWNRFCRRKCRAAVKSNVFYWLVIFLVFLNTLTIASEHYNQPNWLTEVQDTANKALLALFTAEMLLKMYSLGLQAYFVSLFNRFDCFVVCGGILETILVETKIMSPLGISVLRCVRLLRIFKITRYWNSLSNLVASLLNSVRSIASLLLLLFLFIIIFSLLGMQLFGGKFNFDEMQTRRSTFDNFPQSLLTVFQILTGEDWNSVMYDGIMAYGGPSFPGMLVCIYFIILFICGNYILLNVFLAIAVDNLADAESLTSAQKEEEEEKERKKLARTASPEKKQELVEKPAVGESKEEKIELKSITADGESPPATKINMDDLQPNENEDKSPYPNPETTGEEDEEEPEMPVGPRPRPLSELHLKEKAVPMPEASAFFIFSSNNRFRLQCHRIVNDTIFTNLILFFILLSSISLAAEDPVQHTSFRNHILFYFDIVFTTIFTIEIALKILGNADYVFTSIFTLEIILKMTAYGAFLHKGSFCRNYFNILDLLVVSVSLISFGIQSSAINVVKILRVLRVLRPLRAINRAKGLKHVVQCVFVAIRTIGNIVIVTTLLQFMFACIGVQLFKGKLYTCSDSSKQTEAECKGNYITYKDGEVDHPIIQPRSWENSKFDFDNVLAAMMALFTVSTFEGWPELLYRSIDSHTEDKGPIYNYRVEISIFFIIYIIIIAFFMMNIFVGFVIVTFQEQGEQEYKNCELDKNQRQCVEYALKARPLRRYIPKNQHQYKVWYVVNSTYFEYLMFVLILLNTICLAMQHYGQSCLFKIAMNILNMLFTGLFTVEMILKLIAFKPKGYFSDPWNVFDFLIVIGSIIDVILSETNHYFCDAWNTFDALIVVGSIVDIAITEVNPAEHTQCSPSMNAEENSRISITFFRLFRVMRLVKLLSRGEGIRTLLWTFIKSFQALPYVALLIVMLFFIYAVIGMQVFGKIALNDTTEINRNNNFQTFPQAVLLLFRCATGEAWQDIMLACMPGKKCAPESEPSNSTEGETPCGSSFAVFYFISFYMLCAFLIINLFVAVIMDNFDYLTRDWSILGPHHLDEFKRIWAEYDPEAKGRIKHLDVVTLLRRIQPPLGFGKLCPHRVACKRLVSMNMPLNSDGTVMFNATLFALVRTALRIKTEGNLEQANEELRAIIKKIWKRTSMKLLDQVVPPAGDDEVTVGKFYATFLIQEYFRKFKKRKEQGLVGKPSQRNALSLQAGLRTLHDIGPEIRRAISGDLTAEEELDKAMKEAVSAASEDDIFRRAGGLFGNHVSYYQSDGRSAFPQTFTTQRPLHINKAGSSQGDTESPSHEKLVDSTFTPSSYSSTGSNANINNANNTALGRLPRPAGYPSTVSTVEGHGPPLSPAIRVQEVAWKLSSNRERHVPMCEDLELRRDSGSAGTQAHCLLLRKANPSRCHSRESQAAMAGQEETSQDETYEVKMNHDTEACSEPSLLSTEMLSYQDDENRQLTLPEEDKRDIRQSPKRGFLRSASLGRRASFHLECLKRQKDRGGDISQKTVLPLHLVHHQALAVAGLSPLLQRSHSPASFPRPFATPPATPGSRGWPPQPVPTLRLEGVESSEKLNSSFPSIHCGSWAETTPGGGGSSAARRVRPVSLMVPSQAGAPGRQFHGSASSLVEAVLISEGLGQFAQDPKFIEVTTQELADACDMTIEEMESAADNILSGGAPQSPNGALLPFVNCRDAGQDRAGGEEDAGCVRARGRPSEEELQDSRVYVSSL
T1 sequence (Q08289 whole entry partner): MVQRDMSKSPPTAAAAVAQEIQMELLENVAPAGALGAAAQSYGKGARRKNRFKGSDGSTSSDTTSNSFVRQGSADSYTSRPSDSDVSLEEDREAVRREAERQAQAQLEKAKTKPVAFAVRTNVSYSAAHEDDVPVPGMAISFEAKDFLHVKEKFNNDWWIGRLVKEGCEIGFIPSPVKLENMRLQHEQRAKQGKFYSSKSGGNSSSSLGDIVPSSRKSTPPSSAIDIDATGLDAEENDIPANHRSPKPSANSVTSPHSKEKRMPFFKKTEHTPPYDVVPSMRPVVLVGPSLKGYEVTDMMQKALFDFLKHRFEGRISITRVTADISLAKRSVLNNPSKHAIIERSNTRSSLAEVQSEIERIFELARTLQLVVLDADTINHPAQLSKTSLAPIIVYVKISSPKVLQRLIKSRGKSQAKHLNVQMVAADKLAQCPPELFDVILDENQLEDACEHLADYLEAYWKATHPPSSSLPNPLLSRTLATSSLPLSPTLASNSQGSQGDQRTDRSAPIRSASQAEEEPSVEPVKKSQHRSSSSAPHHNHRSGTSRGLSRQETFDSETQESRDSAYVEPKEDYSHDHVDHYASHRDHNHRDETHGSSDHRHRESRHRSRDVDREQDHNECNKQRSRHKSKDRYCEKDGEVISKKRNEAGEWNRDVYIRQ
T1 sequence (P54289 25-956 partner limits assumed): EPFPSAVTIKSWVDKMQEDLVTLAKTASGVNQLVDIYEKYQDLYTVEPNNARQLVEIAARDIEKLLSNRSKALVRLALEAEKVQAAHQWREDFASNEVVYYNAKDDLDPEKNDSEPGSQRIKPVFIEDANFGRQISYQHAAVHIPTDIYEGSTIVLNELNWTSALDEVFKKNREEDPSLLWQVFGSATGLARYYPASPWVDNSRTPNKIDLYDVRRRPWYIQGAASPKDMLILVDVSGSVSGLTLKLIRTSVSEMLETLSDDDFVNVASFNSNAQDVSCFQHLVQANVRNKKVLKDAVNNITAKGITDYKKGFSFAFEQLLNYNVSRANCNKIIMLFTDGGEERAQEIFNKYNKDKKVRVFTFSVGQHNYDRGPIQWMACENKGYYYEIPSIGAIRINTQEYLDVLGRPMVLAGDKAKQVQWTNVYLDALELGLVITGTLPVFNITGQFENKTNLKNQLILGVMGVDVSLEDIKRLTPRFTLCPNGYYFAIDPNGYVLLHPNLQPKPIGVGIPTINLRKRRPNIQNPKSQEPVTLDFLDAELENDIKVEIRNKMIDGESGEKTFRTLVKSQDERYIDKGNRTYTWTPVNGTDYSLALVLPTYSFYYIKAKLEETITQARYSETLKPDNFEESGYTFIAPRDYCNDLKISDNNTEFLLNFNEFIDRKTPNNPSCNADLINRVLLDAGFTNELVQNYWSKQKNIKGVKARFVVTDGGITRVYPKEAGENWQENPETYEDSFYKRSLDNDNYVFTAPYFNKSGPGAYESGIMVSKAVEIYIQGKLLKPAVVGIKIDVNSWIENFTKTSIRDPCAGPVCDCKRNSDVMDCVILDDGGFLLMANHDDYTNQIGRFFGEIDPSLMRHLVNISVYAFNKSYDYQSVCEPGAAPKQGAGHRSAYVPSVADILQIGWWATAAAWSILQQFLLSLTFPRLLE
T1 sequence (P54289 957-1103 partner limits assumed): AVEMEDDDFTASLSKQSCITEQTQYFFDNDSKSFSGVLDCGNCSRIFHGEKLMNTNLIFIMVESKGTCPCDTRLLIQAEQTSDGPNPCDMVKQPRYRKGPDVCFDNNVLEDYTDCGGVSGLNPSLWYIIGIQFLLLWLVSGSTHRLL

Regarding “RICYIHKASLPRATKTCVENTCYKMFIRTQREYISERGCGCPTAMWPYQTECCKGDRCNK (disulfide 3-22, 17-39, 41-52, 53-58 (inferred)) [Cas, calciseptine]”, at Cav1.2 (Cas 300 nM, n=6/N=3, holding -60 mV), the “effect on outward-going ICav1.2 at +150 mV” value was “almost no effect”. Moreover, the “L-type Ca2+ current density” value was -3.32± 0.87 pA/pF on Cav1.2 (Cas 300 nM, 0 mV, Ctrl -9.25± 2,32); -3.92± 0.94 pA/pF at Cav1.2 (Cas 300 nM, +10 mV, Ctrl -9.90± 1,94); -3.08± 0.77 pA/pF at Cav1.2 (Cas 300 nM, +20 mV, Ctrl -8.05± 1.41); -1.53± 0.51 pA/pF on Cav1.2 (Cas 300 nM, +30 mV, Ctrl -4.66± 0.82); -1.76± 0.46 pA/pF on Cav1.2 (Cas 300 nM, -10 mV, Ctrl -5.72± 1.83); -0.70± 0.17 pA/pF on Cav1.2 (Cas 300 nM, -20 mV, Ctrl -1.41± 0.28). Moreover, the “L-type Ca2+ current density” value was -19.52± 4.21 pA/pF in the data set with Cav1.3_42a (Cas 300 nM, 0 mV, Ctrl -20.06± 5.37); -13.16± 2.99 pA/pF in the data set on Cav1.3_42a (Cas 300 nM, +10 mV, Ctrl -13.99± 3.71); -6.44± 1.89 pA/pF in the data set on Cav1.3_42a (Cas 300 nM, +20 mV, Ctrl -7.80± 2.21); -1.13± 1.30 pA/pF in the data set with Cav1.3_42a (Cas 300 nM, +30 mV, Ctrl -2.75± 1.09); -23.42± 5.08 pA/pF with Cav1.3_42a (Cas 300 nM, -10 mV, Ctrl -24.04± 6.83); -21.55± 4.86 pA/pF in the data set on Cav1.3_42a (Cas 300 nM, -20 mV, Ctrl -21.97± 6.85). Moreover, the inhibition at 0.1 µM at Cav1.2 (setting [2]) came out at 37%. In addition, the inhibition at 0.3 µM on Cav1.2 (setting [2]) is 70%; at Cav1.2 (HEK-293T, read-out: inhibition of ICav1.2 (I-V relationship)) it was roughly 60%. Moreover, the inhibition at 1 µM on Cav1.2 (setting [2]) came out at 80%. On Cav1.2 (during Cas application, control −3 ± 2 mV, n = 8, Wilcoxon p = 0.0078), this sequence had a V0.5 for activation of 3 ± 2 mV. Also, the “effect on ICav1.3-42a (I-V relationship)” value with Cav1.3_42a (Cas 300 nM, all voltages tested, at peak p = 0.8148, n=9/N=4) was “no significant effect”. In the data set on Cav1.3_42a (all concentrations tested (up to 1 µM), holding −60 mV, step 0 mV, 300 nM n=13/N=4, 1 µM n=8/N=4), the “reduction of ICav1.3-42a” value is given as “did not record a statistically significant reduction”. Further, the “effect on Cav2.2 current” value in the data set on Cav2.2 N-type is listed as “failed to detect inhibitory effect; also recorded: had no effect”. In data set [1], the “effect on hERG current” value is reported as “did not record any difference; also recorded: had no effect”.

In general, inhibition refers to the relative decrease from the control value, in per cent.
